Reference: ChEMBL document CHEMBL1131407, “Synthesis and metabotropic glutamate receptor activity of a 2-aminobicyclo[3.2.0]heptane-2,5-dicarboxylic acid, a molecule possessing an extended glutamate conformation” (Bioorg Med Chem Lett, 1998)

Columns and labels:
[1] = target: Metabotropic glutamate receptor 6 (Homo sapiens) (UniProt O15303); assay: Compound (300 uM) was evaluated for percentage agonist activity against human mGluR6 expressed in chinese hamster ovary cells; assay type: functional, cell-based
Chain of Metabotropic glutamate receptor 6 (Homo sapiens) (O15303 whole entry): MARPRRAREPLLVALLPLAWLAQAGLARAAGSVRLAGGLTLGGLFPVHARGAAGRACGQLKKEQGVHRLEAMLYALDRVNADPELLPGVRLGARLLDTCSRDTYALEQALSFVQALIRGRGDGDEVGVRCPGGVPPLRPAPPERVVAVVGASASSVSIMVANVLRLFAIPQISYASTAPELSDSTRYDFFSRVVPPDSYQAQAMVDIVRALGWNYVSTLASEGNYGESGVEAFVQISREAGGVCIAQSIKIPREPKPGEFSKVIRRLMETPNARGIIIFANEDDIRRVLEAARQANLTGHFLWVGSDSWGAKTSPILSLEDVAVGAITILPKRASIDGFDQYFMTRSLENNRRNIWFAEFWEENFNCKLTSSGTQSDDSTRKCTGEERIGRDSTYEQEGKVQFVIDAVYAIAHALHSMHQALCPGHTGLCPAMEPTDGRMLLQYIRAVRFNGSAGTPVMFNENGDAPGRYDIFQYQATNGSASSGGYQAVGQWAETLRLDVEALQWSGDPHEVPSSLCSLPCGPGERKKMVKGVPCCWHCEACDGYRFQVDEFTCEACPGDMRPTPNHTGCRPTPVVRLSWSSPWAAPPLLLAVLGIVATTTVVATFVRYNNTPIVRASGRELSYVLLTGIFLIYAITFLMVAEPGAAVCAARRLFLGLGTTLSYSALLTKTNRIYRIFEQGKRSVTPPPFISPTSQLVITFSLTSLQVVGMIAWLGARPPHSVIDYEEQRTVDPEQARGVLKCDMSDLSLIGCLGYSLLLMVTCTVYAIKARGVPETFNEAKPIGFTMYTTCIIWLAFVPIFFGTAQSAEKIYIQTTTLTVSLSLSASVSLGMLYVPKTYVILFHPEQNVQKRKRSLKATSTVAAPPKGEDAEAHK

[2] = target: Metabotropic glutamate receptor 1 (Homo sapiens) (UniProt Q13255); assay: Compound (300 uM) was evaluated for percentage agonist activity against human mGluR1a expressed in chinese hamster ovary cells; assay type: functional, cell-based
Chain of Metabotropic glutamate receptor 1 (Homo sapiens) (Q13255 19-1194 limits assumed): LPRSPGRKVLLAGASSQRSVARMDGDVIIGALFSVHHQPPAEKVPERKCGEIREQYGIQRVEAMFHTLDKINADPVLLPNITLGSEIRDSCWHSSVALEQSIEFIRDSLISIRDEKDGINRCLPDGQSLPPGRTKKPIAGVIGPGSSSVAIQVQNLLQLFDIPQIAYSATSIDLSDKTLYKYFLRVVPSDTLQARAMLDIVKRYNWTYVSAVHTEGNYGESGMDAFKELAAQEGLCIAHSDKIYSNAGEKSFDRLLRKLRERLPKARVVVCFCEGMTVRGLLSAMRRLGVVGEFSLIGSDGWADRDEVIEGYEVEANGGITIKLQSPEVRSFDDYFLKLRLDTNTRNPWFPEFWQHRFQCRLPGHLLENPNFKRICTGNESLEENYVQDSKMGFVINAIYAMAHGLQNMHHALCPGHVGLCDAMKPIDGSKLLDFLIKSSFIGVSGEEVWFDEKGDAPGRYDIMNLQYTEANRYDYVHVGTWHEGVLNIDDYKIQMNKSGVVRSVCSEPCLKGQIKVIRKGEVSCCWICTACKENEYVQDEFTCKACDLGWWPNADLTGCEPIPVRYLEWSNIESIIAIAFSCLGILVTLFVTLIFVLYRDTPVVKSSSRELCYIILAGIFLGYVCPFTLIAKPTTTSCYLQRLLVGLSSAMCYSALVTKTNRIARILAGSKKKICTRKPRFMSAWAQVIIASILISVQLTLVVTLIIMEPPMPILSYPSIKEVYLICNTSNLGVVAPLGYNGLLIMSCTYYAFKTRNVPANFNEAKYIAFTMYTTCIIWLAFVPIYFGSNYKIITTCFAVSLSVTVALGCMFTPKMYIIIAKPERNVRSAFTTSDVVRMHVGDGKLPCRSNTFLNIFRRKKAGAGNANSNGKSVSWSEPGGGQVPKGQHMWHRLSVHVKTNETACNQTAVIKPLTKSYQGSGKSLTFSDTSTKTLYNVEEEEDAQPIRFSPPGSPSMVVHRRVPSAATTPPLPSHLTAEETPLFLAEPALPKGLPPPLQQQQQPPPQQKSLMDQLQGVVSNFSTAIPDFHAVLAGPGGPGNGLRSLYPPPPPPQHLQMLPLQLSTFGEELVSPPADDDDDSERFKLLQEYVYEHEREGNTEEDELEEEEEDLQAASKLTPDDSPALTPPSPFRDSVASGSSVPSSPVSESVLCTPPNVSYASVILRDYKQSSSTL

- Max agonist activity [1]: 20%
- Max agonist activity [2]: 16%
Structure (SMILES): N[C@@]1(C(=O)O)CCC2C[C@H](C(=O)O)C21 (some centres not stated)
